Test results taken from the supplement of paper PMC10307832.

Tests used:
Test in all cases: relative viability (nuclei count vs DMSO), 5 days (fraction); higher = more cells survive
Pazopanib + Trametinib = compound: Cc1ccc(Nc2nccc(N(C)c3ccc4c(C)n(C)nc4c3)n2)cc1S(N)(=O)=O [Pazopanib] + CC(=O)Nc1cccc(-n2c(=O)n(C3CC3)c(=O)c3c(Nc4ccc(I)cc4F)n(C)c(=O)c(C)c32)c1 [Trametinib] (partner 0.02 µM)
Summary of the method: (§1)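 Lung cancer cell lines in 1536-well plates were dosed by pin tool the day after seeding, either with one drug alone or with a fixed anchor-drug dose plus five library-drug doses (not always all listed) in √10 steps. After 5 days, cells were fixed and their nuclei stained in one step (final 0.05% Triton X-100, 1% formaldehyde, 1 ug/ml Hoechst), then counted on 4× images. Relative viability is the nuclei count in treated wells divided by that in vehicle wells. Values are medians of duplicate plates.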

Ponatinib + Vorinostat = compound: Cc1ccc(C(=O)Nc2ccc(CN3CCN(C)CC3)c(C(F)(F)F)c2)cc1C#Cc1cnc2cccnn12 [Ponatinib] + O=C(CCCCCCC(=O)Nc1ccccc1)NO [Vorinostat] (partner 1 µM)
Summary of the method: as §1

Pazopanib + Navitoclax = compound: Cc1ccc(Nc2nccc(N(C)c3ccc4c(C)n(C)nc4c3)n2)cc1S(N)(=O)=O [Pazopanib] + CC1(C)CCC(c2ccc(Cl)cc2)=C(CN2CCN(c3ccc(C(=O)NS(=O)(=O)c4ccc(N[C@H](CCN5CCOCC5)CSc5ccccc5)c(S(=O)(=O)C(F)(F)F)c4)cc3)CC2)C1 [Navitoclax] (partner 0.5 µM)
Summary of the method: as §1

Ponatinib + Foretinib = compound: Cc1ccc(C(=O)Nc2ccc(CN3CCN(C)CC3)c(C(F)(F)F)c2)cc1C#Cc1cnc2cccnn12 [Ponatinib] + COc1cc2c(Oc3ccc(NC(=O)C4(C(=O)Nc5ccc(F)cc5)CC4)cc3F)ccnc2cc1OCCCN1CCOCC1 [Foretinib] (partner 0.25 µM)
Summary of the method: as §1

| Cell Line | relative viability (Pazopanib + Trametinib; first compound 0.01 µM) | relative viability (Pazopanib + Trametinib; first compound 0.03162 µM) | relative viability (Pazopanib + Trametinib; first compound 0.1 µM) | relative viability (Pazopanib + Trametinib; first compound 0.3162 µM) | relative viability (Pazopanib + Trametinib; first compound 1 µM) | relative viability (Ponatinib + Vorinostat; first compound 0.002 µM) | relative viability (Ponatinib + Vorinostat; first compound 0.006325 µM) | relative viability (Ponatinib + Vorinostat; first compound 0.06325 µM) | relative viability (Ponatinib + Vorinostat; first compound 0.2 µM) | relative viability (Pazopanib + Navitoclax; first compound 0.01 µM) | relative viability (Pazopanib + Navitoclax; first compound 0.03162 µM) | relative viability (Pazopanib + Navitoclax; first compound 0.1 µM) | relative viability (Pazopanib + Navitoclax; first compound 0.3162 µM) | relative viability (Pazopanib + Navitoclax; first compound 1 µM) | relative viability (Ponatinib + Foretinib; first compound 0.002 µM) | relative viability (Ponatinib + Foretinib; first compound 0.006325 µM) | relative viability (Ponatinib + Foretinib; first compound 0.06325 µM) | relative viability (Ponatinib + Foretinib; first compound 0.2 µM) |
| --- | --- | --- | --- | --- | --- | --- | --- | --- | --- | --- | --- | --- | --- | --- | --- | --- | --- | --- |
| EKVX | 0.337 | 0.349 | 0.267 | 0.318 | 0.449 | 0.762 | 0.822 | 0.927 | 0.826 | 0.834 | 0.926 | 0.97 | 0.921 | 1.02 | 0.615 | 0.784 | 0.846 | 1.01 |
| EMC-BAC-2 | – | 0.965 | 0.897 | 0.931 | 1.1 | 0.288 | 0.337 | 0.427 | 0.368 | 1.04 | 1.21 | 1.15 | 1.15 | 1.15 | 0.965 | 0.989 | 1.06 | 0.986 |
| EPLC-272H | – | 0.278 | 0.281 | 0.251 | 0.285 | 0.461 | 0.525 | 0.579 | 0.545 | 1.09 | 1.09 | 1.21 | 1.16 | 1.1 | 0.735 | 0.784 | 0.912 | 0.416 |
| H3255 | 0.512 | 0.564 | 0.617 | 0.739 | 0.731 | 0.613 | 0.85 | 0.75 | 0.782 | 0.488 | 0.523 | 0.548 | 0.536 | 0.572 | 0.739 | 0.898 | 0.699 | 0.773 |
| HARA | 0.829 | 0.94 | 0.604 | 0.755 | 0.725 | – | 0.491 | 0.548 | 0.46 | 1.2 | 1.03 | 1.13 | 1.15 | 1.2 | 0.859 | 0.855 | 0.963 | 0.878 |
| HCC-15 | 0.326 | 0.338 | 0.382 | 0.417 | 0.406 | 0.826 | 0.829 | 0.949 | 0.809 | 0.698 | 0.706 | 0.743 | 0.713 | 0.815 | 0.974 | 0.928 | 1.13 | 1.01 |
| HCC-44 | 1.03 | 1 | 1.03 | 1 | 1.09 | 1.1 | 1.07 | 1.07 | 1.07 | 0.87 | 0.896 | 1 | 0.82 | 0.984 | – | – | – | – |
| HCC-78 | – | 0.864 | 0.721 | 0.804 | 1.06 | 0.458 | 0.486 | 0.497 | 0.406 | 0.493 | 0.813 | 0.796 | 0.828 | 0.694 | 0.521 | 0.578 | 0.598 | 0.534 |
| HCC-366 | 0.319 | 0.328 | 0.346 | 0.365 | 0.413 | 0.329 | 0.318 | 0.416 | 0.317 | 1.02 | 1.11 | 1.14 | 0.984 | 1.19 | 0.887 | 0.939 | 0.955 | 0.956 |
